Measured values: patent US20100317685A1, “N-PHENYL-IMIDAZO[1,2-a]PYRIDINE-2-CARBOXAMIDE DERIVATIVES, THEIR PREPARATION AND THEIR THERAPEUTIC APPLICATION” (SANOFI-AVENTIS, priority 2008, published 2010)
pEC50: −log10 of the molar value.

Target: T1, mouse Nurr1 receptor (Mus musculus, UniProt Q06219)
T1 construct: a cell line (N2A) endogenously expressing the mouse Nurr1 receptor; host or cells: Neuro-2A (N2A) mouse neuroblastoma cells stably transfected with 8NBRE-luciferase
Assay: In vitro activity on N2A cells (NBRE-luciferase reporter)
Type: cell-based
Details: N2A-8NBRE cells, 24 hours incubation
Method: Evaluation of the In Vitro Activity on N2A Cells
The activity of the compounds according to the invention was evaluated on a cell line (N2A) endogenously expressing the mouse Nurr1 receptor and stably transfected with the NOT binding response element (NBRE) coupled to the luciferase reporter gene. The EC50 values are between 0.01 and 1000 nM. The assays were carried out according to the procedure described below.
The Neuro-2A cell line comes from a standard commercial source (ATCC). The Neuro-2A clone was obtained, from a spontaneous tumour originating from an A albino mouse strain, by R. J Klebe et al. This Neuro-2A line is subsequently stably transfected with 8NBRE-luciferase. The N2A-8NBRE cells are cultured until confluence in 75 cm^2 culture flasks containing DMEM supplemented with 10% of foetal calf serum, 4.5 g/l of glucose and 0.4 mg/ml of geneticin. After a week of culture, the cells are recovered with 0.25% trypsin for 30 seconds and then resuspended in DMEM without phenol red, containing 4.5 g/l of glucose and 10% of Hyclone delipidized serum, and deposited into transparent-bottom 96-well white plates. The cells are deposited at a rate of 60 000 per well in 75 μl for 24 hours before the addition of the products. […] The plates are subsequently measured in a luminescence counter for microplates after having been sealed with an adhesive film. […]

T1 sequence (Q06219 whole entry): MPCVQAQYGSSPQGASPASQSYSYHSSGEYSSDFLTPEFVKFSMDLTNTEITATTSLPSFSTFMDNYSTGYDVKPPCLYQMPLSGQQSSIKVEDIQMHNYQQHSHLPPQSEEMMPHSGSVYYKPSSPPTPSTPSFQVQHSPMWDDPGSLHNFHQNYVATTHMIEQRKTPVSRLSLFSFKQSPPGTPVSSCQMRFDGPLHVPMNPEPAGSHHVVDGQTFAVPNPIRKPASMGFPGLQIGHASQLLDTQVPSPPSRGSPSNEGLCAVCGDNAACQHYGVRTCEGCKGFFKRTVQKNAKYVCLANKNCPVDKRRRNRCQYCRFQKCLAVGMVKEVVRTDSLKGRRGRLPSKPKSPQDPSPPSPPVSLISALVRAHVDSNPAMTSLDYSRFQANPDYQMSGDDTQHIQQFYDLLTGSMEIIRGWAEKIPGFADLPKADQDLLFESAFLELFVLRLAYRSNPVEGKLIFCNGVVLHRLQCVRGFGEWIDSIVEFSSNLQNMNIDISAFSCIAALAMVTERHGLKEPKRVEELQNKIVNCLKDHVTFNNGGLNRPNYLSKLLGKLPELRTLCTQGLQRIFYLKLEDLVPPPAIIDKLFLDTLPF

| SMILES | pEC50 |
| --- | --- |
| N#Cc1cccc(NC(=O)c2cn3cc(-c4cccc(CO)c4)ccc3n2)c1 [Compound 5, N-(3-cyanophenyl)-6-[3-(hydroxymethyl)phenyl]imidazo[1,2-a]pyridine-2-carboxamide] | 7.57 |
| N#Cc1c(F)cccc1NC(=O)c1cn2cc(-c3cccc(CO)c3)ccc2n1 [Compound 8, N-(2-cyano-3-fluorophenyl)-6-[3-(hydroxymethyl)phenyl]imidazo[1,2-a]pyridine-2-carboxamide] | 9.40 |
